In patent US20070275935A1, “Estratriene Derivatives” (priority 2003, published 2007):

How the values were obtained:
[1] = molecular target: T1, Estrogen Receptor (ER) (Rattus norvegicus, UniProt P06211); experiment: Estrogen receptor binding assay, 3H-estradiol displacement from rat uterine cytosol; conditions: for ER affinity (pIC50 ^3H-E2 displacement): rat uterine cytosol, 0.2 nM [3H]-E2, tested up to 10 μM; for displacement of ^3H-Estradiol, in words: concentrations up to 10 μM; for IC50: read-out: ER-RLB pIC50 (converted)
T1 construct: using rat uterine cytosol as a source of ER; from tissue; host or cells: rat uterus, cytosol fraction (30000 x g supernatant)
T1 sequence (P06211 1-600): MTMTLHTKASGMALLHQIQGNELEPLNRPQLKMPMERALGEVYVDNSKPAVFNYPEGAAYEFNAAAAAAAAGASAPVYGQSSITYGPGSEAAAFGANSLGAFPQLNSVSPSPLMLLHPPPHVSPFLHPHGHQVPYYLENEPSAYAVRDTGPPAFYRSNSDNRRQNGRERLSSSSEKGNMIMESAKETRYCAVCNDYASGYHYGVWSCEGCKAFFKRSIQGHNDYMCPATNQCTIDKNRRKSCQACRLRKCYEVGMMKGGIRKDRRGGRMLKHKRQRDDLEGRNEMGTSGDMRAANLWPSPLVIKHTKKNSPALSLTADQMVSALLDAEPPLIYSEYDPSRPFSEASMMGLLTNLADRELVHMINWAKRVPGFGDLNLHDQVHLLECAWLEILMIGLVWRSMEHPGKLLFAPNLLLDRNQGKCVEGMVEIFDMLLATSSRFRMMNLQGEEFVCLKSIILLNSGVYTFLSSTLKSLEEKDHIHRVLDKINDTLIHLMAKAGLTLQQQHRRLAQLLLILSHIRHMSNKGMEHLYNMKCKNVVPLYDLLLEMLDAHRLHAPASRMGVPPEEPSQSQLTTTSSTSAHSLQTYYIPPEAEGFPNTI
Method in brief: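 Cytosol from Brown Norway rat uteri, homogenised in 10 mM Tris pH 7.4 with EDTA, glycerol and PMSF, spun at 30000×g, diluted to about 1 mg/ml protein.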

[2] = molecular target: colchicine binding site on tubulin; experiment: Colchicine displacement assay on partially purified tubulin; conditions: partially purified lamb brain tubulin, 1 μM 3H colchicine
Protocol: For the binding assays, a partial purification of tubulin was derived from the polymerization-depolymerization method of Williams and Lee (Williams et al., 1982). Three lamb brains (approximately 150 g total) were obtained approximately fifteen minutes after slaughter. Batches of 100g of brain were homogenized in 50 mL cold PM4M buffer (100 mM piperazine-N,N′-bis[2-ethane sulfonic acid] (PIPES), 1 mM MgSO4, 2 mM ethylene glycol tetra-acetate (EGTA), 2 mM DTT, 4 M glycerol, pH 6.9) using a domestic blender (Power Blender, Ronson) on the highest setting for 30 s. The crude homogenate was centrifuged for 15 mins (9000 rpm (6500×g), 4° C.) and the precipitate (cell debris, extracellular matrix and crude nuclear fraction) discarded. The 6500×g supernatant was then centrifuged for 75 mins (28 000 rpm (96 000×g), 4° C.) and the precipitate (consisting largely of cell membranes) was discarded.
The GTP (guanosine triphosphate) concentration of the 96 000×g supernatant was adjusted to 1 mM by the addition of an appropriate amount of a freshly prepared solution of 50 mM GTP in distilled water. […]
Reaction mixtures were incubated for 30 mins at 37° C. in a water bath, followed by cold stabilization on ice for 1 to 1.5 hours. […] 5 ml “Emulsifier Safe” scintillation fluid (Packard) was added to each tube, and the samples counted in a Packard 1600TR liquid scintillation analyzer.

[3] = test system: Human airway smooth muscle (HASM) cells; experiment: bFGF-induced proliferation of human airway smooth muscle (HASM) cells, cell number after 48 h; format: cell-based; conditions: bFGF 300 pM, mean ± SEM (n), without analogue 135.8 ± 3.7
Protocol: Human airway smooth muscle (HASM) cells were cultured from macroscopically normal bronchi (0.5-2 cm diameter) obtained from lung resection or heart-lung transplant specimens provided by the Alfred Hospital (Melbourne) according to methods published in detail previously (Fernandes et al., 1999).
Approximately 0.1 g of smooth muscle was stripped from the wall of the bronchus for each cell culture. Dissected tissue was immersed in Dulbecco's modified Eagle's medium (DMEM) (Flow Laboratories, Scotland), supplemented with 100 U/mL penicillin G (CSL, Australia) and 100 ug/mL streptomycin (CSL, Australia). The tissue was rinsed in phosphate buffered saline (PBS; Oxoid, England) and the airway smooth muscle was chopped into 2 mm^3 pieces and digested for 2 hours in DMEM containing elastase (0.5 mg/mL: Worthington Biochemical, USA) followed by a 12 hour incubation in DMEM containing collagenase (1 mg/mL) (Worthington Biochemical, USA), at 37° C. with agitation.
The resulting cell suspension was centrifuged and washed three times in phosphate buffered saline (PBS). Following the last centrifugation step, the cells were resuspended in 25 mL of DMEM supplemented with L-glutamine (2 mM: Sigma, USA), penicillin G (100 U/mL), streptomycin (100 μg/mL), amphotericin B (2 μg/mL: Wellcome, UK) and heat-inactivated FCS (10% v/v: CSL, Australia) and seeded into 25 cm^2 culture flasks. The primary isolates were incubated for 7 to 14 days to reach confluence.
Cells were harvested weekly by 10 min exposure to trypsin (0.5%: CSL, Australia) and EDTA (1 mM in PBS: BDH, Australia) and passaged at a 1:3 ratio into 75 cm^2 flasks.
The activity of the compounds has been established in cell culture by exploring their effects on mitogen-induced increases in cell number. […]
Data are expressed as a percentage of the cell number in vehicle treated wells and are presented as the mean and standard error of the mean.

[4] = test system: bovine aortic vascular smooth muscle; experiment: bFGF-induced proliferation of bovine aortic vascular smooth muscle; format: cell-based; conditions: 3 μM
Protocol: Experiments were also carried out with bovine aortic vascular smooth muscle with a more limited set of compounds.

[5] = test system: GM-CSF production by Human Airway Smooth Muscle Cells; experiment: Interleukin-1α-mediated GM-CSF production by HASM cells (ELISA); format: cell-based; conditions: for HASM - GM-CSF: inhibition of interleukin-1α (1 ng/ml)-mediated GM-CSF production, concentration not given, * not defined
[6] = test system: Airway fibroblasts; experiment: bFGF-induced proliferation of airway fibroblasts from airway biopsies; format: cell-based; conditions: 3 μM
Description: Airway fibroblasts were also obtained by explant culture from airway biopsies.

[7] = 3H-estradiol displacement, cytosolic preparations of rat uterus, pIC50 of 4.00 = inactive

| SMILES | ER affinity (pIC50 ^3H-E2 displacement) [1] | Tubulin affinity (pIC50 ^3H-colchicine displacement) [2] | Cell number (% control) bFGF ([3]; analogue 10 μM) | reduction of bFGF (300 pM) induced proliferation [4] [%] | HASM - GM-CSF [5] | reduction of bFGF (300 pM) induced proliferation [6] [%] | displacement of ^3H-Estradiol, in words [1] | Cell number (% control) bFGF ([3]; analogue 1 μM) | reduction of GM-CSF production, in words (FIG. 7) ([5]; interleukin-1α 1 ng/ml) | ER-RLB pIC50 [1, 7] | IC50 [1, 7] [nM] |
| --- | --- | --- | --- | --- | --- | --- | --- | --- | --- | --- | --- |
| COc1cc2c(cc1O)CC[C@@H]1[C@@H]2CC[C@]2(C)[C@@H](O)CC[C@@H]12 [2-methoxyestradiol, reference compound] | 6.8 | 4.8 | 87.5 ± 13.8 (4) % control | 87±6 | 29 ± 10* | – | – | – | – | – | – |
| COc1cc2c(cc1O)C(=NOCc1ccc([N+](=O)[O-])cc1)C[C@@H]1[C@@H]2CC[C@]2(C)[C@@H](O)CC[C@@H]12 [CP-DM-2-11-7, 2-methoxy-6-(4-nitrobenzyloxy)iminoestradiol] | <5.0 | <4.0 | – | 75±14 | 45 ± 8* | 55±20 | little or no detectable displacement | 116.6 ± 6.6 (14) % control | reduced GM-CSF production to greater extent than 2MEO | – | – |
| COc1cc2c(cc1O)C(=NOCc1ccc([N+](=O)[O-])cc1)C[C@@H]1[C@@H]2CC[C@]2(C)C(=NO)CC[C@@H]12 [CP-DM-3-91, 2-methoxy-6-(4-nitrobenzyloxy)iminoestrone-17-oxime] | <5.0 | – | – | 93±4 | 43 ± 11* | 50±24 | little or no detectable displacement | 111.1 ± 10.9 (4) % control | – | 4.26 | – |
| C[C@]12CC[C@@H]3c4ccc(O)cc4CC[C@H]3[C@@H]1CC/C2=N\OCc1cccc([N+](=O)[O-])c1 [CP-DM-3-102, estrone-17-(3-nitrobenzyl)oxime] | – | – | – | – | – | – | – | – | – | – | 2400 |
| COc1cc2c(cc1O)/C(=N/OCc1cc(F)cc(F)c1)C[C@@H]1[C@@H]2CC[C@]2(C)[C@@H](O)CC[C@@H]12 [CP-DM-4-35, 6-(3,5-difluorobenzyloxy)imino-2-methoxyestradiol] | – | – | – | – | – | – | – | – | – | – | 5250 |
| COc1cc2c(cc1O)/C(=N/OCc1ccc(SC(F)(F)F)cc1)C[C@@H]1[C@@H]2CC[C@]2(C)[C@@H](O)CC[C@@H]12 [CP-DM-4-65, 2-methoxy-6-(4-trifluoromethylthiobenzyloxy)iminoestradiol] | – | – | – | – | 28 ± 31 | – | – | – | – | – | 646 |
